Results taken from publication PMC9271048, “Probing strigolactone perception mechanisms with rationally designed small-molecule agonists stimulating germination of root parasitic weeds” (Nature Communications, 2022).
Read-outs that look alike come from different tables or passages of the source.

Assays:
[1] = system: PaKAI2s (5 KAI2 protein homologs in P. aegyptiaca); test: YLG-based competition assay on KAI2 protein homologs of P. aegyptiaca; format: biochemical, Phelipanche aegyptiaca; conditions: Supplementary Fig. 27
From the text: In P. aegyptiaca, 5 KAI2s have been proposed as the SL receptors for the regulation of seed germination. […] The high sequence similarity may explain the consistency of these compounds in inducing germination in both S. hermonthica and P. aegyptiaca.
(§1) The excitation and emission wavelengths of YLG are 480 and 520 nm, respectively. We used a fluorescence spectrophotometer (CARY Eclipse) to detect the fluorescence intensity change of YLG during the enzymatic hydrolysis assay process. All the testing compounds and YLG were dissolved in DMSO and prepared as stock solutions just before use. […] The changes of fluorescence at 520 nm of each well were recorded every 1 min for 30 min. Using the reaction mixture without adding enzyme and tested compounds as the background control. After subtracting the background hydrolysis, a linear fluorescence increase in 8 min was used for further inspection. The IC50 values were determined via fitting relative inhibition percentages with the varying concentrations of compounds in Microsoft Excel.
Supplementary Fig. 27. Binding of compounds 4a, (R)- and (S)-4a, and 4g-i to the HTL proteins in S. hermonthica and KAI2 protein homologs in P. aegyptiaca. In the competitive inhibitory activity assay, YLG (3 µM) was used as the fluorogenic substrate. Error bar indicates SD (n = 3 biologically independent experiments).
(1 picture or pasted object on this page, not shown here)

P. aegyptiaca seeds = test: P. aegyptiaca seed germination assay; format: in vivo, Phelipanche aegyptiaca; parameters: P. aegyptiaca germination EC50 values, source data average: unit not given here; P. aegyptiaca seed germination activity, source data average: unit of the concentration uncertain; conditions: for P. aegyptiaca seed germination activity, source data average: Supplementary Fig. 9b
Protocol: P. aegyptiaca seeds were harvested from Xinjiang province, China in 2017. The seeds were surface sterilized using 1% NaClO solution for 2 min and then washed with distilled water six times. For seed germination assay, about 20 pieces of glass fiber-filter paper discs (15 mm diameter, Whatman GF/B) were placed separately on two layers of filter papers (9 cm diameter, Whatman) in a Petri dish. Five milliliters of distilled water was added to each Petri dish to wet the papers. Approximately 40–90 sterilized seeds were spread onto each glass fiber-filter paper disc. After the seeds were conditioned in the dark at 25 °C for 4 days[48], glass fiber-filter paper discs were blotted dry on filter papers (9 cm) and transferred to the wells of 24-well cell culture plates. The testing compounds were dissolved in acetone and diluted with H2O (VH2O/Vacetone = 999/1) just before use[49]. rac-GR24 and 1‰ acetone solution were used as positive and negative controls, respectively. One hundred microliters of the test solution was added to each well of the plates, and all treatments were performed in three biological repeats. The plates were sealed and incubated in the dark at 25 °C for a week. The experiments were performed at least three times. The germinated seeds were observed by using an electronic magnifier at ×20 magnification.

ShHTL7 = ShHTL7 (Striga hermonthica, UniProt A0A0M3PNA2); test: Competitive inhibition of ShHTL7 with Yoshimulactone Green (YLG) as substrate; format: biochemical
Sequence of ShHTL7 (A0A0M3PNA2 entry or part of it): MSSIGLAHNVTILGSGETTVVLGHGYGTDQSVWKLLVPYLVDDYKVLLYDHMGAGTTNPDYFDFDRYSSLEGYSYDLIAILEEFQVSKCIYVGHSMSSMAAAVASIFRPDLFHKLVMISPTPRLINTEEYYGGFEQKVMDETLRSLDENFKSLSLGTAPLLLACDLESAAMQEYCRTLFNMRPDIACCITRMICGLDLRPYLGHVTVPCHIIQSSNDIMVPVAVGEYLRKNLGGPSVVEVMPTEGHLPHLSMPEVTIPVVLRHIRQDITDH
Protocol: Based on the structural feature of the lead compound 2h, we selected three regions to perform further modification (Supplementary Fig. 6), to try to further improve bioactivity. Insertion of a carbonyl group between the bicyclo[2.2.1]hept-5-en-2-yl group and the piperazine ring was detrimental to binding affinity (Supplementary Fig. 6, region A). Removal of an oxygen atom in region B was found unfavorable to binding affinity as well. Therefore, we focused on modifying the benzene ring (region C) for 2h. A series of compounds with different groups at region C was synthesized (Supplementary Scheme 1). […] As SPR just measures the binding ability, another independent assay by using Yoshimulactone Green (YLG) as the fluorescent substrate was performed to determine the half-maximal inhibitory concentration (IC50) of these compounds against ShHTL7[22].
as §1

Striga hermonthica seeds = test: S. hermonthica seed germination assay; format: in vivo; conditions: source data of Fig. 2d; average of 2 or 3
Protocol: Two hundred mg of Striga hermonthica seeds were surface sterilized in 2% sodium hypochlorite containing 0.02% Tween-20 for 5 min, and then washed five times with sterile MilliQ water. The sterilized Striga seeds were spread on sterile glass fiber-filter papers (Whatman® GF/A, Sigma–Aldrich) in Petri dishes containing filter paper moistened with 3 mL sterile MilliQ water. The Petri dishes were incubated 6–8 days at 30 °C for preconditioning after which the seeds were dried in a laminar sterile air flow for 2 h. The germination bioassay was performed in 0.1% agarose and 0.1 ppm rac-GR24 was used as a positive control. Stocks of rac-GR24 and other compounds were prepared in acetone and diluted before use. Dried preconditioned seeds were added to the agarose containing the relevant compound, which was subsequently divided over three wells of a 12-well Cell Culture Treated Plates (Fisher Scientific, Landsmeer, the Netherlands). The plates were sealed and incubated in the dark at 30 °C for 2 days. The Striga germination rate in % (GR%) was calculated for each replicate using the formula: GR% = (Ngs/Nts) × 100, where Ngs is the number of germinated seeds per well and Nts is the total number of seeds per well. EC50 values of the compounds were calculated using http://www.ic50.tk/index.html.

[2] = KAI2C, YLG competition, read-out: IC50, replicate 1
[3] = KAI2C, YLG competition, read-out: IC50, replicate 2
[4] = KAI2C, YLG competition, read-out: IC50, replicate 3
[5] = KAI2C, average of 3 replicates, read-out: IC50, average
[6] = KAI2d1, YLG competition, read-out: IC50, replicate 1
[7] = KAI2d1, YLG competition, read-out: IC50, replicate 2
[8] = KAI2d1, YLG competition, read-out: IC50, replicate 3
[9] = KAI2d1, average of 3 replicates, read-out: IC50, average
[10] = KAI2d2, YLG competition, read-out: IC50, replicate 1
[11] = KAI2d2, YLG competition, read-out: IC50, replicate 2
[12] = KAI2d2, YLG competition, read-out: IC50, replicate 3
[13] = KAI2d2, average of 3 replicates, read-out: IC50, average
[14] = KAI2d3, YLG competition, read-out: IC50, replicate 1
[15] = KAI2d3, YLG competition, read-out: IC50, replicate 2
[16] = KAI2d3, YLG competition, read-out: IC50, replicate 3
[17] = KAI2d3, average of 3 replicates, read-out: IC50, average
[18] = KAI2d4, YLG competition, read-out: IC50, replicate 1
[19] = KAI2d4, YLG competition, read-out: IC50, replicate 2
[20] = KAI2d4, YLG competition, read-out: IC50, replicate 3
[21] = KAI2d4, average of 3 replicates, read-out: IC50, average
[22] = ShHTL7, YLG competition, Supplementary Fig. 27, read-out: IC50, replicate 1
[23] = ShHTL7, YLG competition, Supplementary Fig. 27, read-out: IC50, replicate 2
[24] = ShHTL7, YLG competition, Supplementary Fig. 27, read-out: IC50, replicate 3
[25] = ShHTL7, average of 3 replicates, Supplementary Fig. 27, read-out: IC50, average
[26] = wild-type ShHTL7, average of 3, source data of Fig. 2a,b, Supplementary Figs. 8a, 9a, 20b, read-out: IC50, competitive ShHTL7 inhibition (YLG), source data average
[27] = 0.1 (unit uncertain) as printed

SMILES | IC50 [1, 2] | IC50 [1, 3] | IC50 [1, 4] | IC50 [1, 5] | IC50 [1, 6] | IC50 [1, 7] | IC50 [1, 8] | IC50 [1, 9] | IC50 [1, 10] | IC50 [1, 11] | IC50 [1, 12] | IC50 [1, 13] | IC50 [1, 14] | IC50 [1, 15] | IC50 [1, 16] | IC50 [1, 17] | IC50 [1, 18] | IC50 [1, 19] | IC50 [1, 20] | IC50 [1, 21] | further results
CC1=C[C@H](OC(=O)N2CCN(C(=O)COc3ccc(Br)cc3C)CC2)OC1=O [(S)-4a] | 5.99 µM | 5.59 µM | 5.14 µM | 5.57 µM | 14.8 µM | 11.8 µM | 14.3 µM | 13.6 µM | 41.7 µM | 36.2 µM | 35.4 µM | 37.8 µM | 11.9 µM | 8.47 µM | 7.99 µM | 9.45 µM | 6.05 µM | 6.25 µM | 8.45 µM | 6.92 µM | EC50 (P. aegyptiaca seeds; Phelipanche aegyptiaca, read-out: EC50, P. aegyptiaca seed germination): 0.0339 nM; EC50 (P. aegyptiaca seeds; Phelipanche aegyptiaca, source data of Fig. 2c and Supplementary Fig. 8b, average of 3, read-out: P. aegyptiaca germination EC50 values, source data average (converted)): 0.021 nM; fold improved P. aegyptiaca seed germination activity, (S)-4a versus (R)-4a (P. aegyptiaca seeds; in vivo): over 40,000 fold; IC50 (ShHTL7; [22]): 1.06 µM; IC50 (ShHTL7; [23]): 0.837 µM; IC50 (ShHTL7; [24]): 0.921 µM; IC50 (ShHTL7; [25]): 0.938 µM; IC50 (ShHTL7; YLG as substrate, text and Fig. 2, read-out: IC50, competitive ShHTL7 inhibition (YLG assay)): 0.94 ± 0.11 µM; IC50 (ShHTL7; [26]): 0.938 µM
CC1=CC(OC(=O)N2CCN(C(=O)COc3ccc(Br)cc3C)CC2)CC1=O (centres unmarked) [4g] | 53.3 µM | 49.1 µM | 43 µM | 48.5 µM | 27.1 µM | 24.4 µM | 23.2 µM | 24.9 µM | 62.3 µM | 72.7 µM | 74.9 µM | 70 µM | 57.1 µM | 36.6 µM | 53.9 µM | 49.2 µM | 77.3 µM | 85.3 µM | 76.1 µM | 79.6 µM | P. aegyptiaca seed germination activity, source data average (P. aegyptiaca seeds; [27]): 11.4951%; P. aegyptiaca seed germination activity, source data average (P. aegyptiaca seeds; 1 (unit uncertain) as printed): 63.9751%; P. aegyptiaca seed germination activity, source data average (P. aegyptiaca seeds; 10 (unit uncertain) as printed): 69.9023%; IC50 (ShHTL7; [22]): 3.08 µM; IC50 (ShHTL7; [23]): 1.61 µM; IC50 (ShHTL7; [24]): 1.97 µM; IC50 (ShHTL7; [26]): 2.22 µM
CC1=CC(OC(=O)N2CCN(C(=O)COc3ccc(Br)cc3C)CC2)N(C)C1=O (centres unmarked) [4h] | 23.3 µM | 36.9 µM | 38.5 µM | 32.9 µM | 24.7 µM | 22.1 µM | 27.9 µM | 24.9 µM | 71.4 µM | 67.3 µM | 71.7 µM | 70.1 µM | 30.6 µM | 41.8 µM | 41.3 µM | 37.9 µM | > 100 µM | > 100 µM | > 100 µM | > 100 µM | P. aegyptiaca seed germination activity, source data average (P. aegyptiaca seeds; [27]): 6.8801%; P. aegyptiaca seed germination activity, source data average (P. aegyptiaca seeds; 1 (unit uncertain) as printed): 41.0534%; P. aegyptiaca seed germination activity, source data average (P. aegyptiaca seeds; 10 (unit uncertain) as printed): 82.4464%; IC50 (ShHTL7; [22]): 4.33 µM; IC50 (ShHTL7; [23]): 5.43 µM; IC50 (ShHTL7; [24]): 4.75 µM; IC50 (ShHTL7; [26]): 4.84 µM
CC1=CC(CC(=O)N2CCN(C(=O)COc3ccc(Br)cc3C)CC2)OC1=O (centres unmarked) [4i] | 48.7 µM | 57 µM | 49.5 µM | 51.7 µM | 24 µM | 16.7 µM | 20.1 µM | 20.3 µM | 54.2 µM | 57.7 µM | 57.5 µM | 56.5 µM | 51.4 µM | 41.1 µM | 40.4 µM | 44.3 µM | 30.7 µM | 31.7 µM | 26.9 µM | 29.8 µM | P. aegyptiaca seed germination activity, source data average (P. aegyptiaca seeds; [27]): 6.798%; P. aegyptiaca seed germination activity, source data average (P. aegyptiaca seeds; 1 (unit uncertain) as printed): 17.2667%; P. aegyptiaca seed germination activity, source data average (P. aegyptiaca seeds; 10 (unit uncertain) as printed): 39.4856%; IC50 (ShHTL7; [22]): 5.98 µM; IC50 (ShHTL7; [23]): 5.2 µM; IC50 (ShHTL7; [24]): 4.35 µM; IC50 (ShHTL7; [26]): 5.18 µM
CC1=C[C@H](O/C=C2/C(=O)O[C@@H]3c4ccccc4C[C@H]23)OC1=O (racemic) [rac-GR24, reference compound] | 7.31 µM | 5.69 µM | 6.56 µM | 6.52 µM | 1.78 µM | 2.83 µM | 2.39 µM | 2.33 µM | 5.14 µM | 2.89 µM | 3.46 µM | 3.83 µM | 2.27 µM | 2.04 µM | 1.55 µM | 1.95 µM | 6.41 µM | 5.83 µM | 7.25 µM | 6.5 µM | S. hermonthica germination EC50 values, source data average (Striga hermonthica seeds): 10.4655; germination of P. aegyptiaca seeds, source data average (P. aegyptiaca seeds; 10 μM, Fig. 1d source data, average of 3): 96.5229%; P. aegyptiaca seed germination activity, source data average (P. aegyptiaca seeds; [27]): 90.7731%; P. aegyptiaca seed germination activity, source data average (P. aegyptiaca seeds; 1 (unit uncertain) as printed): 95.3227%; P. aegyptiaca seed germination activity, source data average (P. aegyptiaca seeds; 10 (unit uncertain) as printed): 96.5229%; P. aegyptiaca germination(%) (P. aegyptiaca seeds; Supplementary Table 1, compounds tested at 10 μM, means ± SD, n = 3): 96.4%; EC50 (P. aegyptiaca seeds; in vivo, read-out: EC50, P. aegyptiaca seed germination): 0.0485 nM; P. aegyptiaca germination EC50 values, source data average (P. aegyptiaca seeds; source data of Fig. 2c and Supplementary Fig. 8b, average of 3): 10.3597; IC50 (ShHTL7; [22]): 0.633 µM; IC50 (ShHTL7; [23]): 0.842 µM; IC50 (ShHTL7; [24]): 0.614 µM; IC50 (ShHTL7; [25]): 0.696 µM; IC50 (ShHTL7; YLG used as the substrate, means ± SD, n = 3, read-out: IC50 (Supplementary Table 1)): 0.73 ± 0.11 µM
